# Activity calls are given as the source filed them. No cut-off for these calls is given here.
# Key:
# [1] = target: Beta-1 adrenergic receptor (Cavia porcellus) (UniProt B0FL73); test: Agonist activity at beta-1 adrenergic receptor in isolated guinea pig atrial preparation assessed as induction of chronotrophic response at 10^-9 to 10^-3 M; conditions: Cardiac atrium
# [2] = target: Beta-2 adrenergic receptor (Cavia porcellus) (UniProt Q8K4Z4); test: Agonist activity at beta-2 adrenergic receptor in isolated guinea pig trachea assessed as induction of relaxation of tracheal muscle
# Sequence of Beta-2 adrenergic receptor (Cavia porcellus) (Q8K4Z4 whole entry, looked up): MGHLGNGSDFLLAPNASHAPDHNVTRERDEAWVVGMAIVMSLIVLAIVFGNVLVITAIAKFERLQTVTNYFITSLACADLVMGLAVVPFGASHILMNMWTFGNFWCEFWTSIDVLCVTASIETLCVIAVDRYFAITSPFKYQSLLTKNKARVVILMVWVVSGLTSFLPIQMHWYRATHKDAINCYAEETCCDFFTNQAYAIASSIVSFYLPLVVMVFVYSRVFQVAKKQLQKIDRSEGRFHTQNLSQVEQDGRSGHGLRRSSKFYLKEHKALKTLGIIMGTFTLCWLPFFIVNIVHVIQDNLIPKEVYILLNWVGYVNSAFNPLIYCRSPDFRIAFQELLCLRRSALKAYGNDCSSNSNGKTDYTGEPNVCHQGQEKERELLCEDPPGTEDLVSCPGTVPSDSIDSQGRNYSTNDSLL
# [3] = target: Beta-2 adrenergic receptor (Cavia porcellus) (UniProt Q8K4Z4); test: Agonist activity at beta-2 adrenergic receptor in isolated guinea pig trachea assessed as induction of relaxation of tracheal muscle at 10^-9 to 10^-3 M
# Sequence of Beta-1 adrenergic receptor (Cavia porcellus) (B0FL73 1-467): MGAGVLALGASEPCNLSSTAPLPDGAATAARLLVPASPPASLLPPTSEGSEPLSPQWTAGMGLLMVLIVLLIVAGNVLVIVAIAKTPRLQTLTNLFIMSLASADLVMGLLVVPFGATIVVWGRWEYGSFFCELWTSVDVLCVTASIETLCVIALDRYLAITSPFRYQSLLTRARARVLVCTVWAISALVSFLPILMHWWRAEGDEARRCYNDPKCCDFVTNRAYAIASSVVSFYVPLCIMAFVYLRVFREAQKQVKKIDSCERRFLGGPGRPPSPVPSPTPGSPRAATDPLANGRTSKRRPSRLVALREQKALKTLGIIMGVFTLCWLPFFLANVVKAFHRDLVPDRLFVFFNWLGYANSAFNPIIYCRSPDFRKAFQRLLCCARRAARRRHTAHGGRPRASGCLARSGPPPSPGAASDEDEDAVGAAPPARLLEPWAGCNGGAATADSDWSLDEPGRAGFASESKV
Activity [1],ED50 [2] [×10⁻⁵ M],Activity [3],Compound
inactive,1,,COc1cc(CC2CNCc3cc(O)c(O)cc32)cc(OC)c1OC (centres undefined)
Active,,Active,COc1cc(CC(CN)c2ccc(O)c(O)c2)cc(OC)c1OC (centres undefined)

# Source: ChEMBL document CHEMBL3244015, “Synthesis and biological evaluation of a tetrahydroisoquinoline derivative possessing selective beta2-adrenergic agonist activity” (J Med Chem, 1977)
